In patent US20220280653A1, “INTERCELLULAR ADHESION MOLECULE 1 (ICAM1) ANTIBODY DRUG CONJUGATE AND USES THEREOF” (Children's Medical Center Corporation, priority 2019, published 2022) one finds IC50 and circulation half-life data, which are given here for one compound.

Where a name gives a salt, the structure may show the parent alone.

The test system of data set [1] is PANC-1 cells. Kind of data set: Cytotoxicity assay (CCK-8). To be noted: Homo sapiens; PANC-1, 72 hours. In kind it is cell-based.
Procedure: Human pancreatic cancer cell lines were seeded in a 96-well plate at a density of 5x10^3 cells/well and allowed to adhere overnight. The culture medium was then replaced with medium containing free GEM, IgG or ICAM1 conjugated DM1, Duo, MMAE, MMAF at different drug concentrations. After cells were cultured for another 72 hours, the cytotoxicity was determined by CCK-8 assay following the vendor-provided protocol. Cells were carefully rinsed with PBS after the drug-containing medium was removed, and this was followed by adding the CCK-8 containing medium solution. The cells were then incubated with the CCK-8 medium for 4 hours. The plate was read at the absorbance wavelength of 450 nm using a microplate reader (Synergy2; BioTek, Winooski, Vt., USA). Cell viability was determined by comparing the absorbance of cells incubated with drugs to that of the control cells incubated without the presence of the drug.
The conditions of data set [2]: in vivo; cited from earlier work.

Regarding `Nc1ccn([C@@H]2O[C@H](CO)[C@@H](O)C2(F)F)c(=O)n1` [GEM, Gemcitabine hydrochloride], the IC50 in data set [1] was 89.1 µM. The circulation half-life in data set [2] was 16.8 min.

The IC50 is the concentration needed to halve the response being measured. Lower therefore signals greater potency.
